The structures appear in SMILES notation. Marks after values point to notes of the source that are not given here. Where a SMILES comes first, the peptide text is derived from it. The star is where a group is joined. Palmitoyl = CCCCCCCCCCCCCCCC(=O)*

This is an account of results in US12686703B2, “Cosmetic tetrapeptide, composition and use” (Sederma, priority 2020, dated 2026).

Format in all cases: cell-based
Assay [1] concerns Outer Root Sheath Keratinocytes (ORSK). Put plainly: Proliferation study (EdU) on outer root sheath keratinocytes. To be noted: 5 ppm, p < 0.01. On the procedure: (§1) 2.1—Proliferation Studies on Cell Cultures (Hair Follicle Dermal Papilla Cells (HFDPC) and Outer Root Sheath Keratinocytes (ORSK))
(§2) The cells are seeded in adapted culture media and incubated for 24 h. Then the culture media are removed and changed for test media and cells are incubated. The cells are thereafter contacted with the peptide (diluted at different concentrations in DMSO) and with EdU (Ethynyldeoxyuridine), a thymidine-analogue nucleoside which is incorporate into the newly synthetized in proliferating cells. The cultures are stopped, and cells are labelled using a Edu detection kit.

In assay [2] the test system is whole hair follicles isolated from scalp explants. The assay is described as follows: Hair growth from hair follicle bulbs (isolated follicles in culture). The procedure:
Whole follicles (including the infundibulum, upper sheath, bulge, lower sheath, and bulb) are isolated by microdissection from scalp explants issued from surgery. On first day (DO), the hairs are placed individually in wells and keep alive at 37° C. in a humid atmosphere, enriched with 5% CO2, in an adapted culture medium.
Peptide solutions at 10 ppm and 5 ppm are prepared in the culture medium with 0.1% DMSO.
On D0, D3, D5 and D7, the peptide products are incorporated into the culture medium. The culture media are completely renewed for each treatment. The control cases receive no treatment other than renewal of the culture medium.
On day D0, the hairs are removed and stored frozen at −80° C. On D10, the hairs from each case are taken and treated in the same way.
A photograph of the isolated hairs is taken on DO to measure the hair from the bulb to the end of the hair shaft using an image analysis software. The photographs and length measurements are repeated on D3, D5, D7 and D10. The growth of each hair is monitored individually.
During the study, the hairs grow. To estimate the effect of the peptide, the average hair length between the peptide and the solvent control are compared, for each time (see below Table 5).

The next assay has as its system Collagen I (PIP). Put plainly: ELISA assay of collagen I synthesis (PIP assay) in normal human fibroblasts. The following applies: concentrations of 5 to 15 ppm; NHF, 72 h contact; vs excipient; p < 0.01. The procedure: Normal human fibroblasts (NHF) in culture are brought into contact with the products to be tested or their excipient (negative control) for 72 h. At the end of the contact, the culture supernatants are removed, and the syntheses of the dermal macromolecules are estimated by ELISA assays. An estimate of cell viability is carried out by Hoechst assay to weight the obtained data.
Collagen I is evaluated via the PIP assay (carboxy-terminal propeptide of procollagen type I) which is a peptide fragment resulting from the enzymatic degradation of procollagen when the latter is excreted outside the fibroblast (therefore in the culture medium where the assay is carried out).

Assay [3] relates to Hair Follicle Dermal Papilla Cells (HFDPC). Put plainly: Proliferation study (EdU) on hair follicle dermal papilla cells. The following applies: p < 0.01. The procedure:
as §1, §2

The test system of another assay is Fibrillin 1. Put plainly: Immunofluorescence assay of Fibrillin 1 formation in normal human fibroblasts. The following applies: 8 ppm; NHF, five-day incubation; p < 0.05. On the procedure: Normal human fibroblasts (NHF) are cultured for at least 24 hours in fibroblast growth medium containing serum. Once confluence was reached, the cells are seeded, and the actives and corresponding controls diluted in a culture medium are added. At the end of a five-day incubation period, the supernatant is removed, the cells are washed with PBS and fixed. The cells are then incubated with the primary Fibrillin 1 monoclonal antibody (11C1.3) (Thermo Fisher) diluted in blocking buffer at a concentration of 1:200. The cells are incubated. The primary antibody is removed, and the cells are washed with PBS. The secondary antibody was added at a dilution of 1:1000 in blocking buffer, then removed and the cells are washed with PBS. The formation of Fibrillin 1 by the cells is visualized using a fluorescence microscope. The obtained images are analyzed using an image processing software assigning a numerical value to the coverage density.

For the compound `CCCCCCCCCCCCCCCC(=O)N[C@@H](CC(C)C)C(=O)N[C@@H](CC(C)C)C(=O)N[C@@H](C)C(=O)N[C@@H](CC(N)=O)C(=O)O` [Pal-LLAN-OH, palmitoyl-leucyl-leucyl-alanyl-asparagine] (Palmitoyl-LLAN-OH), the “Cell proliferation variation % vs. control solvent (DMSO)” value in assay [1] was “+55%”; in assay [3] (5 ppm) it was “+13.7%”; in assay [3] (10 ppm), “+22.15%”. Besides, the “Growth variation compared to solvent control (0.1% DMSO)” value is recorded as “+21% (nsd)” in assay [2] (5 ppm, D3, nsd); “+26%*” in assay [2] (5 ppm, D5, p < 0.05); “+32%**” in assay [2] (5 ppm, D7, p < 0.01); “+30%**” in assay [2] (5 ppm, D10, p < 0.01); “+16% (nsd)” in assay [2] (10 ppm, D3, nsd); “+28%*” in assay [2] (10 ppm, D5, p < 0.05). Moreover, the “Growth variation compared to solvent control (0.1% DMSO)” value in assay [2] (10 ppm, D7, p < 0.01) is given as “+37%**”; in assay [2] (10 ppm, D10, p < 0.01), “+38%**”. The “Collagen I (PIP)” value with Collagen I (PIP) was “+60%”. Moreover, the “Fibrillin 1” value in the assay with Fibrillin 1 is on record as “+108% (p < 0.05)”.
